Source: US7842856B2, “Herbicide resistance gene, compositions and methods” (The Board of Trustees of the University of Illinois, priority 2005, dated 2010)

Legend:
[1] = test system: A. tuberculatus S (susceptible) parent; experiment: Herbicide dose-response on whole plants, S parent; type: in vivo, Amaranthus tuberculatus (waterhemp); details: S line
[2] = test system: Arabidopsis Columbia-0 (untransformed control); experiment: Seed germination on herbicide-containing medium, untransformed control; type: in vivo, Arabidopsis thaliana
Experimental: (§1) These T1 seeds were put into 0.8% agarose and plated onto MS media with 1% sucrose, Cefotaxmine (500 ug/mL) and benomyl (2 ug/mL). For selection of transformants, these contained either 100 nM Pursuit (imazethapyr), 70 nM Cobra (lactofen) or 125 nM Cobra. Arabidopsis ecotype Columbia-0 (Co10) was also plated as a control on all types of plates and the imidazolinone tolerant mutant csr1-2 was plated on Pursuit plates as a positive control. The seeds were stratified on the plates for three days at 4° C.
(§2) The plates were then incubated in a Percival Scientific (Perry, Iowa) growth chamber at 21-22° C. and 15 hours of light for six days and scored for viable seedlings on the selective plates.
(§3) The numbers of seeds were the raw counts of actual seeds on the selection plates. The numbers of seedlings were the number of green seedlings found on each plate, indicative of resistance to the selective agent (lactofen or imazethapyr). If there were no seedlings, there were no resistant plants. Only the “resistant” forms of PPX2L conferred lactofen tolerance, confirming that the isolated PPX2L coding sequence from the herbicide resistant waterhemp was sufficient to confer the PPO-inhibiting herbicide resistance phenotype on transgenic plants into which the plant expressible sequence was introduced. Plants obtained from the imazethapyr selection indicated the presence of transformed seeds with the sensitive form of PPX2L. Without wishing to be bound by any particular theory, the single seedling on transformation set 5 is believed to have been a stray resistant transformant.

[3] = test system: Arabidopsis T1 seeds, PPX2L Resistant plasmid; experiment: T1 seed germination on herbicide-containing medium, PPX2L Resistant plasmid; type: in vivo, Arabidopsis thaliana; details: for Number of Germinated Seedlings on Imazethapyr: approximately 1000 seeds
Experimental: (§4) Reverse transcription PCR (RT-PCR) products from resistant and sensitive biotypes were used as template for cloning the resistant and sensitive genes through PCR amplifications. These amplifications were performed using the ligation independent cloning (LIC) adapted oligonucleotide primers specific to PPX2L, P1 and P2, and cloned into the LIC site of a plant transformation vector, using techniques known to those skilled in the art. These primers used in these experiments were as follows: P1, […], SEQ ID NO:49; P2, […], SEQ ID NO:50; P3, […], SEQ ID NO:51; P4, […], SEQ ID NO:52; P5, […], SEQ ID NO:53; and P6, […], SEQ ID NO:54. These plant transformation vectors contained an imidazolinone tolerant Arabidopsis AHAS large subunit gene under the control of the actin promoter and octopine synthase terminator, which allowed selection on Pursuit (imazethapyr) for all transformants, especially for selection of lactofen […] transformants. For expression of the resistant and sensitive genes in Arabidopsis, the coding sequences for each resistant or sensitive gene were inserted after the parsley ubiquitin promoter and before the nopaline synthase terminator. Several clones each of susceptible and resistant PPX2L were obtained from different biotype isolates and each was sequenced.
(§5) Three vector plasmids were constructed: VC-MBW101-1, containing the susceptible version of the PPX2L gene (SEQ ID NO:47); VC-MBW102-1, containing the resistant version of the PPX2L gene (SEQ ID NO:25); and VC-MBW103-1, containing the SRS version of the PPX2L gene (SEQ ID NO:45); All three of these plasmids were transformed into Agrobacterium tumefaciens. as follows:
(§6) For the transformation, 6-week-old Arabidopsis plants, which had just started flowering were immersed for 10 seconds into the above-described agrobacterial suspension which had previously been treated with 10 μl Silwett L77 (Crompton S. A., Osi Specialties, CH). The method is described in Clough and Bent. 1998. Plant J. 16:735-743.
(§7) These T1 generation seeds, which represented a collection of a few transformed seeds in a population of untransformed seeds, were sterilized by liquid sterilization (rinsing in a solution of 400 mL of ddH2O+100 mL of bleach+250 uL of 20% SDS, followed by rinsing in sterile distilled water).
as §1, §2, §3

[4] = test system: Arabidopsis T1 seeds, PPX2L "SRS" plasmid; experiment: T1 seed germination on herbicide-containing medium, PPX2L SRS plasmid; type: in vivo, Arabidopsis thaliana; details: for Number of Germinated Seedlings on Imazethapyr: approximately 1000 seeds
Experimental: as §4
In addition, a chimeric “SRS” gene (see SEQ ID NO:45), which has the 5′ end of the susceptible coding sequence up to the unique XhoI site, the internal XhoI to DraIII fragment of the resistant coding sequence containing the resistance mutation, and the 3′ end of the susceptible from the unique DraIII site to the stop codon, was produced by amplifying sensitive RT-PCR template with P1 and P3 as well as with P6 and P2. Resistant template was also amplified with P4 and P5. These amplicons were digested with XhoI and DraIII and purified, then ligated. The ligation reaction was cloned into the LIC site of the plant transformation vector, as above.
as §5, §6, §7, §1, §2
The numbers of seeds were the raw counts of actual seeds on the selection plates. The numbers of seedlings were the number of green seedlings found on each plate, indicative of resistance to the selective agent (lactofen or imazethapyr). If there were no seedlings, there were no resistant plants. […]

[5] = test system: Arabidopsis T1 seeds, PPX2L Susceptible plasmid; experiment: T1 seed germination on herbicide-containing medium, PPX2L Susceptible plasmid; type: in vivo, Arabidopsis thaliana; details: for Number of Germinated Seedlings on Imazethapyr: approximately 1000 seeds
Experimental: as §4, §5, §6, §7, §1, §2, §3

With `CCOC(=O)C(C)OC(=O)c1cc(Oc2ccc(C(F)(F)F)cc2Cl)ccc1[N+](=O)[O-]` (racemic) [Lactofen, (±)-2-ethoxy-1-methyl-2-oxoethyl 5-{2-chloro-4-(trifluoromethyl)phenoxy}-2-nitrobenzoate] the “GR50 (growth reduction by 50%) S” value ([1]; 10 DAT) was 0.2 g ai ha^−1, the “GR50 (growth reduction by 50%) S” value ([1]; 15 DAT) was 0.4 g ai ha^−1 and the “Calculated Number of Germinated Seedlings per 1000 Seeds for both rates of Lactofen” value [2] was 0. The “Number of Germinated Seedlings on 125 nM Lactofen” value (“Number … on 125 nM Lactofen” for short) ([2]; 600 seeds plated) was 0, the “Number of Germinated Seedlings on 70 nM lactofen” value (“Number … on 70 nM lactofen” for short) ([2]; 884 seeds plated, six days) was 0 and the “Calculated Number of Germinated Seedlings per 1000 Seeds for both rates of Lactofen” value ([3]; transformation set 1) was 7. For the same molecule, the “Number … on 125 nM Lactofen” value ([3]; transformation set 1, 560 seeds plated) was 4, the “Number … on 70 nM lactofen” value ([3]; transformation set 1, 640 seeds plated) was 4 and the “Calculated Number of Germinated Seedlings per 1000 Seeds for both rates of Lactofen” value ([3]; transformation set 2) was 3. The “Number … on 125 nM Lactofen” value ([3]; transformation set 2, 1152 seeds plated) was 4, the “Number … on 70 nM lactofen” value ([3]; transformation set 2, 1276 seeds plated) was 3 and the “Calculated Number of Germinated Seedlings per 1000 Seeds for both rates of Lactofen” value ([3]; transformation set 3) was 2. For the same molecule, the “Number … on 70 nM lactofen” value ([3]; transformation set 3, 980 seeds plated) was 3, the “Number … on 125 nM Lactofen” value ([3]; transformation set 3, 1664 seeds plated) was 1 and the “Calculated Number of Germinated Seedlings per 1000 Seeds for both rates of Lactofen” value ([4]; transformation set 4-390) was 9. The “Number … on 125 nM Lactofen” value ([4]; transformation set 4-390, 1160 seeds plated) was 6, the “Number … on 70 nM lactofen” value ([4]; transformation set 4-390, 1176 seeds plated) was 14 and the “Calculated Number of Germinated Seedlings per 1000 Seeds for both rates of Lactofen” value ([4]; transformation set 4-414) was 5. The “Number … on 125 nM Lactofen” value ([4]; transformation set 4-414, 880 seeds plated) was 2, the “Number … on 70 nM lactofen” value ([4]; transformation set 4-414, 1036 seeds plated) was 7 and the “Calculated Number of Germinated Seedlings per 1000 Seeds for both rates of Lactofen” value ([5]; transformation set 4-291) was 0. The “Number … on 70 nM lactofen” value ([5]; transformation set 4-291, 500 seeds plated) was 0, the “Number … on 125 nM Lactofen” value ([5]; transformation set 4-291, 680 seeds plated) was 0 and the “Calculated Number of Germinated Seedlings per 1000 Seeds for both rates of Lactofen” value ([5]; transformation set 5) was 1. The “Number … on 70 nM lactofen” value ([5]; transformation set 5, 460 seeds plated) was 1 and the “Number … on 125 nM Lactofen” value ([5]; transformation set 5, 764 seeds plated) was 0.

With `O=C(O)c1cc(Oc2ccc(C(F)(F)F)cc2Cl)ccc1[N+](=O)[O-]` [Acifluorfen, 5-{2-chloro-4-(trifluoromethyl)phenoxy}-2-nitrobezoic acid] the “GR50 (growth reduction by 50%) S” value ([1]; 10 DAT) was 1.6 g ai ha^−1.

With `CCc1cnc(C2=NC(C)(C(C)C)C(=O)N2)c(C(=O)O)c1` (centres unmarked) [Imazethapyr] the “Number of Germinated Seedlings on Imazethapyr” value (“Number … on Imazethapyr” below) ([2]; 100 nM Pursuit, approximately 1000 seeds) was 0, the “Number … on Imazethapyr” value ([3]; transformation set 1, 100 nM Pursuit) was 9 and the “Number … on Imazethapyr” value ([3]; transformation set 2, 100 nM Pursuit) was 9. For the same molecule, the “Number … on Imazethapyr” value ([3]; transformation set 3, 100 nM Pursuit) was 6, the “Number … on Imazethapyr” value ([4]; transformation set 4-390, 100 nM Pursuit) was 10 and the “Number … on Imazethapyr” value ([4]; transformation set 4-414, 100 nM Pursuit) was 11. For the same molecule, the “Number … on Imazethapyr” value ([5]; transformation set 4-291, 100 nM Pursuit) was 4 and the “Number … on Imazethapyr” value ([5]; transformation set 5, 100 nM Pursuit) was 12.
